Patent US20180252736A1, “CB2 RECEPTOR INTERNALIZATION” (Arena Pharmaceuticals, Inc., priority 2015, published 2018)
Values joined by “and” are separate entries in the source; they are usually repeats but may differ in a detail not shown here. Equal values may be shown once.

Tests used:
rat CB1 receptor = rat CB1 receptor (Rattus norvegicus, UniProt P20272); test: β-arrestin recruitment assay (PathHunter CHO-K1); assay type: cell-based
mouse CB1 receptor = mouse CB1 receptor (Mus musculus, UniProt P47746); test: β-arrestin recruitment assay (PathHunter CHO-K1); assay type: cell-based
rat CB2 receptor [1] = biological target: T1, rat CB2 receptor (Rattus norvegicus, UniProt Q9QZN9); test: β-arrestin recruitment assay (PathHunter CHO-K1); assay type: cell-based; set-up: host or cells: PathHunter CHO-K1; details: for β-arrestin efficacy compared to CP55,940, rat CB2: relative to CP55,940
T1 sequence (Q9QZN9 1-360): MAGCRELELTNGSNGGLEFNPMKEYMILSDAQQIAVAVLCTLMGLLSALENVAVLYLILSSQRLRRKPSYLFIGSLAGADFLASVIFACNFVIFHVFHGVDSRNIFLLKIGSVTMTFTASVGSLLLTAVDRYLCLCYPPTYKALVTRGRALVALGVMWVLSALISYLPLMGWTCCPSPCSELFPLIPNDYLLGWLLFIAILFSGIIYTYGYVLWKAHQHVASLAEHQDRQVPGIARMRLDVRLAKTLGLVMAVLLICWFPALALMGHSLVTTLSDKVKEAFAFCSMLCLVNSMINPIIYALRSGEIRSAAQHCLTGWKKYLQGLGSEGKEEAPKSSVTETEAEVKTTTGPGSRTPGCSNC

hCB2 [2] = biological target: T2, hCB2 (Homo sapiens, UniProt P34972); details: reported by Glenmark, cited from earlier work
hCB2 [3] = biological target: T2, hCB2; test: β-arrestin recruitment assay (PathHunter CHO-K1); assay type: cell-based; set-up: host or cells: PathHunter CHO-K1; details: for β-arrestin efficacy compared to CP55,940, human CB2: relative to CP55,940
[4] = test system: human CB2 receptor versus human CB1 receptor; test: CB2 receptor selectivity (ratio of EC50 values, β-arrestin data); assay type: cell-based
Text: Competition curves were fit to a nonlinear least squares curve fitting program to obtain EC50 values for the β-arrestin data. Selectivity for the CB2 receptor versus the CB1 receptor was obtained by dividing the […].

mouse CB2 receptor = biological target: T3, mouse CB2 receptor (Mus musculus, UniProt P47936); test: β-arrestin recruitment assay (PathHunter CHO-K1); assay type: cell-based; details: for β-arrestin efficacy, mouse CB2: relative to reference agonist
T3 construct: host or cells: PathHunter CHO-K1

CB1 [5] = biological target: T4, CB1 (Homo sapiens, UniProt P21554); test: β-arrestin recruitment assay (PathHunter CHO-K1); assay type: cell-based
hCB2 [6] = biological target: T2, hCB2; test: CB2 receptor internalization assay (enzyme complementation); assay type: cell-based; details: for receptor internalization, human CB2 (words): relative to CP55,940
Protocol: (§1) Receptor internalization assays for the CB2 receptor were performed using the PathHunter® Total GPCR Internalization system from DiscoverRx (Fremont, Calif.). The assay was performed in CB2-receptor-expressing stable cell lines generated in the PathHunter® U2OS parental cell line.
(§2) Total GPCR internalization assays were performed per the manufacturer's instructions. Briefly, PathHunter® U2OS cells stably expressing the recombinant human or rat CB2 receptor were seeded into 96-well microtiter assay plates (Catalog #3610, Corning Inc., Corning, N.Y.) at a density of 20,000 cells per well in 100 μL growth medium and cultured in a humidified 37° C. incubator overnight. Growth medium was exchanged the following day for 100 μL serum-free medium (OptiMEM), and cells were incubated overnight in a humidified 37° C. incubator. On the day of the assay, test compounds dissolved in DMSO were serially diluted in DMSO and then further diluted in OptiMEM to achieve 11× concentrations in 5.5% DMSO. Aliquots (10 μL) of diluted test compounds were added to the assay plates, which were then incubated in a humidified 37° C. incubator for 3 hours. Lysis/detection reagents (55 μL total) were then added and the plates were incubated for an additional 1 hour at room temperature. Plates were then read on an appropriate plate reader (e.g., EnVision (Perkin Elmer, Waltham, Mass.) or PheraStar (BMG)). Dose-response curves were generated using a minimum of 8 different test concentrations and triplicate determinations were made at each test concentration. Assay performance was monitored by inclusion of a standard CB2 reference agonist such as CP55,940 and agonist internalization efficacies were reported relative to that of the reference agonist.

rat CB2 receptor [7] = biological target: T1, rat CB2 receptor; test: as above; assay type: cell-based; details: relative to CP55,940
Protocol: as §1, §2

CB1 [8] = biological target: T4, CB1; details: concentrations less than 30 μM; reported by GSK; cited from earlier work
[9] = test system: MIA-induced osteoarthritis in male Sprague Dawley rats; test: Osteoarthritis pain model (MIA); assay type: in vivo, rat; details: for effect of CB1 antagonist on in vivo efficacy: pain model
Text: Injection of monosodium iodoacetate (MIA) into a joint (J Rheumatol 14:130-1, 1987) inhibits the activity of glyceraldehyde-3-phosphate dehydrogenase in chondrocytes, resulting in disruption of glycolysis and eventually in cell death. The progressive loss of chondrocytes results in histological and morphological changes of the articular cartilage, closely resembling those seen in osteoarthritis patients.
Osteoarthritis was induced in 200 g male Sprague Dawley rats. After brief anesthesia by isoflurane, rats received a single intra-articular injection of MIA (2 mg) (Catalog #19148, Sigma Aldrich, Saint Louis, Mo.) dissolved in 0.9% sterile saline in a 50 μL volume administered through the patella ligament into the joint space of the left knee with a 30 G needle. Following injection, animals were allowed to recover from anesthesia before being returned to the main housing vivarium.
Typically during disease progression, there is an inflammation period of 0-7 days post-intra-articular injection followed by progressive degeneration of the cartilage and subchondral bone from days 14-55. Efficacy studies with a compound described herein took place from day 14 onwards and were performed twice a week with at least three days of wash-out in between each assay. Three different assays can be used to measure pain. Tactile allodynia can be measured via von Frey assay, hind limb paw weight distribution can be monitored using an incapacitance tester (Columbus Instruments, Columbus, Ohio), and hind limb grip strength can be measured using a grip strength meter (Columbus Instruments, Columbus, Ohio). Briefly, the von Frey assay was performed using the standard up/down method with von Frey filaments. Hind paw weight distribution was determined by placing rats in a chamber so that each hind paw rested on a separate force plate of the incapacitance tester. The force exerted by each hind limb (measured in grams) was averaged over a three second period. Three measurements are taken for each rat, and the change in hind paw weight distribution was calculated. Peak hind limb grip force was conducted by recoding the maximum compressive force exerted on the hind limb mesh gauge set on the grip strength meter. During testing, each rat was restrained and the paw of the injected knee was allowed to grip the mesh. The animal was then pulled in an upward motion until their grip was broken. Each rat was tested three times, with the contralateral paw used as a control.
A baseline was established for animals prior to administration of compounds. The MIA-treated groups of rats were then dosed with either vehicle (PEG400, orally), test compound (at 3 mg/kg, 10 mg/kg, and 30 mg/kg, orally), or morphine (3 mg/kg, subcutaneously). The dosing volume was 500 μL. One hour after dosing, von Frey assay, hind limb weight distribution and/or hind limb grip analysis was performed to measure the efficacy of the test compounds.

CB1 [10] = biological target: T4, CB1; details: at 100,000 nM; reported by Lilly; cited from earlier work
hCB2 [11] = biological target: T2, hCB2; details: reported by Lilly; cited from earlier work

T2 sequence (P34972 whole entry): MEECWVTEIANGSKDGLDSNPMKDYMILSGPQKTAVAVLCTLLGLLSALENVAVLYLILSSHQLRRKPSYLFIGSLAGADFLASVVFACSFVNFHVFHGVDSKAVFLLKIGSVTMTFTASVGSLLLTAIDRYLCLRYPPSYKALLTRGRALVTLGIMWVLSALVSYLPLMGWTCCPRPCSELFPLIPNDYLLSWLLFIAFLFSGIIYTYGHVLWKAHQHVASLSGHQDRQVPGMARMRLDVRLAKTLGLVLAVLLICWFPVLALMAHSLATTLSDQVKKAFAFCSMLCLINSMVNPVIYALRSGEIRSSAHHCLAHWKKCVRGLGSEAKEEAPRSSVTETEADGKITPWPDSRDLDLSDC
Chain of rat CB1 receptor (P20272 whole entry): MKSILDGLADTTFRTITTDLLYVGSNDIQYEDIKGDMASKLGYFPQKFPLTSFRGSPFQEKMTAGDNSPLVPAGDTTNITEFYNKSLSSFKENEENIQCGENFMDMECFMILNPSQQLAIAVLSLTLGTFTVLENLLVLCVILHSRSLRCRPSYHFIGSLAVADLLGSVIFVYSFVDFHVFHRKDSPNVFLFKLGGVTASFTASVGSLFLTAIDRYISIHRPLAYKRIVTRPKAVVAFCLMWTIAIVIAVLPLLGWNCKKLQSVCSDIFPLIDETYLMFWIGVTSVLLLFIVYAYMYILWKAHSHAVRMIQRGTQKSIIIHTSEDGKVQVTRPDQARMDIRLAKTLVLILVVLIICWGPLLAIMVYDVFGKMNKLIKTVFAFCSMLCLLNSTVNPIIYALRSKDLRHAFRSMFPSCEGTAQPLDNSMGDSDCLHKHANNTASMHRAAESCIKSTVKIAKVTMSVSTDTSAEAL
T3 sequence (P47936 whole entry): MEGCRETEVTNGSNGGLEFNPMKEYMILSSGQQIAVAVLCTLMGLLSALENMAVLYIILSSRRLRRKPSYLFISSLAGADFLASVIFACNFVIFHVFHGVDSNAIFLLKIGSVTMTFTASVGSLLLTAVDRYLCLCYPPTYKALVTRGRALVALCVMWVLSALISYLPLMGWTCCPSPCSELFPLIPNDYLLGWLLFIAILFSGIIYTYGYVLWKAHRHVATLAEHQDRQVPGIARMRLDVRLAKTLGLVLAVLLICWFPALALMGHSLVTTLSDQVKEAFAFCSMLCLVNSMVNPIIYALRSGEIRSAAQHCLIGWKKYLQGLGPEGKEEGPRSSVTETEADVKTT
Chain of mouse CB1 receptor (P47746 whole entry): as the sequence (P20272 whole entry) above, with E95D counted along it
T4 sequence (P21554 whole entry): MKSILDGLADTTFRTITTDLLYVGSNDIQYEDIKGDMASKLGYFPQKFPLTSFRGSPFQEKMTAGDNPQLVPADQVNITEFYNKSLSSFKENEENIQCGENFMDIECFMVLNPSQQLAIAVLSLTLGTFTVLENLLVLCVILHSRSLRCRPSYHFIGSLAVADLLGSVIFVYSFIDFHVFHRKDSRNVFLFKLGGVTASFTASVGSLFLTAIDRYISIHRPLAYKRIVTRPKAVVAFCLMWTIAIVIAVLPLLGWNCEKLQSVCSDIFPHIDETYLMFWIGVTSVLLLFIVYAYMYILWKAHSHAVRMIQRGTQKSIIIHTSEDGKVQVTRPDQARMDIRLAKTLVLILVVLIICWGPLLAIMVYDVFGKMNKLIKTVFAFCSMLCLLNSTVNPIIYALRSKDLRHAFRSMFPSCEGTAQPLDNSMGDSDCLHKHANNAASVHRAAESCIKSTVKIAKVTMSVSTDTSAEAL

Compound	EC50 (rat CB1 receptor)	EC50 (mouse CB1 receptor)	EC50 (rat CB2 receptor [1])	β-arrestin efficacy compared to CP55,940, rat CB2 (rat CB2 receptor [1])	EC50 (hCB2 [3])	β-arrestin efficacy compared to CP55,940, human CB2 (hCB2 [3])	EC50 (mouse CB2 receptor)	β-arrestin efficacy, mouse CB2 (mouse CB2 receptor)	EC50 (CB1 [5])	receptor internalization, human CB2 (words) (hCB2 [6])	other results
CC(C)(C)NC(=O)c1nn(-c2ccc(F)cc2F)c2c1C1CCC2C1 (stereo not drawn) [GRC 10693]	290 nM	750 nM	2 nM	89%	1.2 nM	100%	0.8 nM	96%	384 nM	high efficacy	β-arrestin efficacy, rat CB1 (rat CB1 receptor; relative to reference agonist): 57%; β-arrestin efficacy, mouse CB1 (mouse CB1 receptor; relative to reference agonist): 75%; selectivity compared to the CB1 receptor using cAMP assays (hCB2 [2]): greater than 4700 fold; IC50 (hCB2 [2]; read-out: functional IC50 for the human CB2 receptor): 2.1 nM; selectivity for the human CB2 receptor versus the human CB1 receptor [4]: 320 fold; β-arrestin efficacy, human CB1 (CB1 [5]; relative to reference agonist): 57%; receptor internalization, rat CB2 (rat CB2 receptor [7]): high efficacy
O=C(NCC1CCOCC1)c1cnc(Nc2ccc(Cl)cc2Cl)nc1C(F)(F)F [GW842166X]	> 10000 nM	> 10000 nM	427 nM	97%	840 nM	99%	235 nM	108%	> 10000 nM	weak receptor internalization	CB1 activity (CB1 [8]): absence of CB1 activity; in vivo efficacy over time in the osteoarthritis pain model ([9]; oral dosing): limited efficacy; effect of CB1 antagonist on in vivo efficacy [9]: blocked by CB1 antagonists; effect of CB1 antagonist on in vivo efficacy ([9]; listed as GW842166): blocked by a CB1 antagonist; total granule intensity compared to CP55,940, human CB2 receptor internalization (hCB2 [6]): 53%; receptor internalization, human CB2 (words) (hCB2 [6]; listed as GW842166): weak CB2 receptor internalization
Cc1nc(N2CCN(C)CC2)c2nc(-c3ccccc3Cl)n(C3CCOCC3)c2n1 [LY2828360]	–	–	–	–	–	41%	–	–	–	–	GTPγS35 stimulation efficacy, hCB1 (CB1 [10]): 15 ± 7% at 100,000 nM; IC50 (mouse CB1 receptor; antagonist activity, read-out: β-arrestin potency, mouse CB1 (* indicates antagonist activity)): 1000 nM; agonist activity in β-arrestin assay, rat CB2 (rat CB2 receptor [1]; compared to CP55,940): absence of agonist activity; GTPγS35 stimulation in vitro efficacy, hCB2 (hCB2 [11]): 87% and 87 ± 2%; IC50 (mouse CB2 receptor; antagonist activity, read-out: β-arrestin potency, mouse CB2 (* indicates antagonist activity)): 56 nM
